Results from patent US20240247253A1, “PRODUCTION METHOD OF POLYPEPTIDE, TAG, EXPRESSION VECTOR, EVALUATION METHOD OF POLYPEPTIDE, PRODUCTION METHOD OF NUCLEIC ACID DISPLAY LIBRARY, AND SCREENING METHOD” (FUJIFILM Corporation, priority 2021, published 2024).
Ends that are not written are not given here. * marks the point of attachment. ClAc = O=C(CCl)*

B1: chemically synthesized integrin binding peptide (SEQ ID NO: 126) (peptide)
peptide: CEPRGDNYRK(ClAc)GGSKKK
notes: Immobilized on a CM5 chip by amine coupling; also called CEPRGDNYRXGGSKKK

Legend:
[1] = test system: cell-free peptide synthesis system derived from Escherichia coli; assay: Cell-free biosynthesis of the integrin binding peptide fusion protein with tag, reaction time 10 minutes, ELISA; format: biochemical; settings: relative value, control without tag = 1; reaction time 10 minutes; fusion protein SEQ ID NO: 5; SKIK encoded by SEQ ID NO: 110
Method: (§1) The cell-free biosynthesis of the polypeptide was carried out in a translation solution containing a template DNA, PUREfrex 2.0 (GeneFrontier, PF201-0.25-5), and Aminoacyl tRNA (1). 1.25 μL (62.5 ng) of the template DNA prepared to 50 ng/μL, 2.5 μL of PUREfrex 2.0 Solution I, 0.25 μL of Solution II, 0.5 μL of Solution III, and 0.5 μL of Aminoacyl tRNA (1) were mixed and mixture was subjected to a reaction at 37° ° C. for 1 hour.
(§2) The amount of the biosynthesized polypeptide was measured by ELISA. 50 ng of Recombinant Human Integrin αVβ3 (R&D systems, 3050-AV-050) was immobilized in each well of a 96-well plate and blocked with Blocker Casein in PBS (Thermo, 37528), and then a cell-free biosynthesis solution diluted with Can Get Signal Immunoreaction Enhancer Solution I (TOYOBO, NKB-101) containing 5 mmol/L MgCl2 was added thereto, and the mixture was subjected to a reaction at room temperature for 3 hours. After washing with 5 mmol/L MgCl2/0.05% Tween 20-containing phosphate buffered saline (PBS), an anti-Myc antibody (Cell Signaling, 14038S) diluted with Can Get Signal Immunoreaction Enhancer Solution II (TOYOBO, NKB-101) was added thereto, and the mixture was subjected to a reaction at room temperature for 2 hours. After washing with PBS containing 5 mmol/L MgCl2/0.05% Tween 20, Super Signal ELISA Femto Substrate (Thermo, 37075) was added thereto, and the luminescence was measured. The amount of the fusion protein in the cell-free biosynthesis solution was calculated based on a calibration curve created from the fusion protein having a known concentration. The luminescence measurement was performed twice, and the average value of the amounts of the fusion protein was calculated. Table 2-1 and Table 2-2 show relative values of the biosynthesis amounts of respective fusion proteins in a case where the amount of the fusion protein of the control example was set to the reference value 1.
As a comparative control, a SKIK tag represented by SEQ ID NO: 107 was selected. The polypeptide to be biosynthesized is the fusion protein containing the integrin binding peptide, as in Example 1.
Using a template DNA including DNA sequences (SEQ ID NOs: 73 to 98) encoding VKKX tags represented by SEQ ID NOs: 27 to 52 produced in Example 1, and a DNA sequence (SEQ ID NO: 110) encoding a SKIK tag represented by SEQ ID NO: 107 produced in Example 2, the biosynthesis reaction was performed in the same manner as in Example 1 by setting the reaction time to 10 minutes. In the same manner in Example 1, the fusion protein was expressed by the cell-free peptide synthesis system and quantified by ELISA. The measurement was performed twice, and the average value of the amounts of the fusion protein was calculated. […] As control example used in Example 1, the control example of the reference value 1 has a form in which the base sequence (SEQ ID NO: 6) encoding the fusion protein is arranged immediately after the start codon ATG.

[2] = test system: cell-free peptide synthesis system derived from Escherichia coli; assay: Cell-free biosynthesis of the integrin binding peptide fusion protein with N-terminal tag, 1 hour reaction, amount measured by ELISA; format: biochemical; settings: fusion protein SEQ ID NO: 5; for Biosynthesis amount of fusion protein: relative value, control example without tag = 1, 37° C. for 1 hour, average of two measurements
Source text: In the cell-free peptide synthesis system derived from Escherichia coli, the effect of the VKKX tag on the biosynthesis amount of the polypeptide was examined. As a polypeptide to be biosynthesized, an integrin binding peptide containing cysteine and chloroacetyl lysine was selected. In this polypeptide, a thiol group of cysteine and a chloroacetyl group of chloroacetyl lysine spontaneously form a thioether bond to become a cyclic polypeptide.
A fusion protein in which an integrin binding peptide, a Myc tag, and a HiBiT tag were linked in this order was designed. As a spacer, Gly-Gly-Ser was inserted between the integrin binding peptide and the Myc tag and between the Myc tag and the HiBiT tag. The amino acid sequence of this fusion protein is SEQ ID NO: 5, and the base sequence encoding this fusion protein is SEQ ID NO: 6. In SEQ ID NO: 5, the integrin binding peptide ranges to the amino acid at the twelfth position (that is, alanine) from an N-terminal, and the amino acid at eleventh position from the N-terminal is chloroacetyl lysine. The triplet TAG at the positions 31 to 33 from the 5′ terminal of the base sequence set forth in SEQ ID NO: 6 was assigned to the codon of chloroacetyl lysine. The end of the base sequence set forth in SEQ ID NO: 6 is the stop codon TAA.
A base sequence encoding a tagged fusion protein in which methionine, a VKKX tag (any of SEQ ID nOs: 7 to 52), and a fusion protein (SEQ ID NO: 5) were linked in this order was designed. In this base sequence, a base sequence (any of SEQ ID nOs: 53 to 98) encoding a VKKX tag is arranged immediately after the start codon ATG, and a base sequence encoding a fusion protein immediately after the base sequence (SEQ ID NO: 6) encoding the VKKX tag is arranged.
As a control example for evaluating the effect of the VKKX tag, a base sequence in which a base sequence (SEQ ID NO: 6) encoding a fusion protein arranged immediately after the start codon ATG was designed.
In order to translate chloroacetyl lysine which is an unnatural amino acid, a tRNA in which the anticodon was CUA and paired with the UAG codon of mRNA was prepared. This tRNA was aminoacylated with an N-chloroacetyl lysine hosphoro 2′ deoxyribocytidylylriboadenosine (pdCpA) ester. This aminoacyl tRNA is referred to as an Aminoacyl tRNA (1).
as §1
as §2, with “Table 2-1 and Table 2-2 show relative values of the biosynthesis amounts of respective fusion proteins in a case where the amount of the fusion protein of the control example was set to the reference value 1.” left out

[3] = biological target: T1, Recombinant Human Integrin αVβ3 (R&D systems, 3050-AV-050) (human, UniProt P06756 31-992; P05106 27-718); assay: SPR (Biacore T-100): peptide immobilized on CM5 chip, integrin αVβ3 injected at 10, 30, 100, 300 nmol/L, 5 mmol/L MgCl2
T1 construct: Bought heterodimer
Method: In addition, as a comparative control, the binding ability (Kd value) of the integrin binding peptide was measured by the SPR method. An integrin binding peptide (SEQ ID NO: 126) was chemically synthesized and immobilized on a CM5 chip (Cytiva, BR100530) by an amine coupling method. The binding ability of the immobilized integrin binding peptide to Recombinant Human Integrin αVβ3 (R&D systems, 3050-AV-050) was measured using Biacore T-100 (Cytiva). As the measurement buffer, an HBS-N buffer (Cytiva, BR100670) in which MgCl₂ was added such that the final concentration was 5 mmol/L, and integrin was added thereto at a concentration of 10, 30, 100, or 300 nmol/L for 10 minutes. The CM5 chip was regenerated and used by repeating the addition of 500 mmol/L EDTA for 10 minutes twice.

T1 sequence (P06756 31-992 limits assumed, chain 1 of 2): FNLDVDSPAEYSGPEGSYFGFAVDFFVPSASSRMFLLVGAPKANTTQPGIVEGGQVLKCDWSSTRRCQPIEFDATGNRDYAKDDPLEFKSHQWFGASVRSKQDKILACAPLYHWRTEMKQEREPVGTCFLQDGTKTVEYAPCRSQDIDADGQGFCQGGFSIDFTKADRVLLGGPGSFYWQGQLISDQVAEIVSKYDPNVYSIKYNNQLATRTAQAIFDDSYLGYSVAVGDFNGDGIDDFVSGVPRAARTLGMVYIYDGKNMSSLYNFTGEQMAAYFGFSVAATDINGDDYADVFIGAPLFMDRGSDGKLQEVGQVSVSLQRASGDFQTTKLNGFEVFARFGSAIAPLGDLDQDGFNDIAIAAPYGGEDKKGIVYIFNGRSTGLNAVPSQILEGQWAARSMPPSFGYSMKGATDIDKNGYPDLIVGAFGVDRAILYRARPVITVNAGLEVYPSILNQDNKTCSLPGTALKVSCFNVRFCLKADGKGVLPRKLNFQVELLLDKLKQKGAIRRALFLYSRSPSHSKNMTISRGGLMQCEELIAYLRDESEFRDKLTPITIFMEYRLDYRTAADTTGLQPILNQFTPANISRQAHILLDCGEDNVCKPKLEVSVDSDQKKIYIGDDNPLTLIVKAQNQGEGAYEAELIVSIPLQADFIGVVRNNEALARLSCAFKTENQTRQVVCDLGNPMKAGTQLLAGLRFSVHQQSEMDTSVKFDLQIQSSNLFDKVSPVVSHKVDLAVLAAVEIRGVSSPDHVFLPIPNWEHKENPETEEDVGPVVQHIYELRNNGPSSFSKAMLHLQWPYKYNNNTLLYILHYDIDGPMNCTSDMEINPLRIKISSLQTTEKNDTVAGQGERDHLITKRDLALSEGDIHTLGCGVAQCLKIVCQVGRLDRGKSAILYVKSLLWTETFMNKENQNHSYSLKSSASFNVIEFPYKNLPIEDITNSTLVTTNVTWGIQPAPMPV
T1 sequence (P05106 27-718 limits assumed, chain 2 of 2): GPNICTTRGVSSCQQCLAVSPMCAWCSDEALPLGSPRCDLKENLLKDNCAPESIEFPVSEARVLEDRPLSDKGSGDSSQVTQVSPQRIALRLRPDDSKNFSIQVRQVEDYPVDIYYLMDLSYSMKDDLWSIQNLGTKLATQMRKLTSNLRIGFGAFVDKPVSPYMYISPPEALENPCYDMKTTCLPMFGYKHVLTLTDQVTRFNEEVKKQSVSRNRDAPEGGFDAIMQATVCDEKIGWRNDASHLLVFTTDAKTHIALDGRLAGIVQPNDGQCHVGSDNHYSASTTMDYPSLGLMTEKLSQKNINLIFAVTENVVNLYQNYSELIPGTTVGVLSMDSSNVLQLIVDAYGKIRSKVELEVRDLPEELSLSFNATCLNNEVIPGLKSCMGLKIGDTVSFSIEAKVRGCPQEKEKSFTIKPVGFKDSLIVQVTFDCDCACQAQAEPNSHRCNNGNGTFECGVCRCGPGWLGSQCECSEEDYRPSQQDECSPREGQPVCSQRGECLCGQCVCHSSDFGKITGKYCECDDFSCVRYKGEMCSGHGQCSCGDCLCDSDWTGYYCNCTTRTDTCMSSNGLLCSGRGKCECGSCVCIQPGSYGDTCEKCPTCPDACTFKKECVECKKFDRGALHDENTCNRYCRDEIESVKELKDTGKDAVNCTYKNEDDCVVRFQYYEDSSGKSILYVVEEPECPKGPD

| Kd [3] | Molecule | Biosynthesis amount of fusion protein [1] | Biosynthesis amount of fusion protein [2] | increase of biosynthesis amount of the fusion protein ([2]; Example 1, versus control without tag, 1 hour) |
| --- | --- | --- | --- | --- |
| – | SEQ ID NO: 45: VKKX tag, amino acid sequence VKKTKTTKD (VKKX Tag) | 10.61 | 7.83 | – |
| – | SEQ ID NO: 46: VKKX tag, amino acid sequence VKKTKTKKTK (VKKX Tag) | 23.47 | 9.94 | – |
| – | SEQ ID NO: 47: VKKX tag, amino acid sequence VKKTKTKKDK (VKKX Tag) | 15.53 | 8.90 | – |
| – | SEQ ID NO: 48: VKKX tag, amino acid sequence VKKTKTKTKK (VKKX Tag) | 36.08 | 10.47 | – |
| – | SEQ ID NO: 49: VKKX tag, amino acid sequence VKKTKTKTTK (VKKX Tag) | 8.75 | 7.44 | – |
| – | SEQ ID NO: 50: VKKX tag, amino acid sequence VKKTKTKDKK (VKKX Tag) | 35.42 | 7.78 | – |
| – | SEQ ID NO: 51: VKKX tag, amino acid sequence VKKTKTTTKK (VKKX Tag) | 15.28 | 6.29 | – |
| – | SEQ ID NO: 52: VKKX tag, amino acid sequence VKKTKTKTDTT (VKKX Tag) | 9.15 | 4.33 | 4.3 times |
| 7.6 nM | B1 | – | – | – |
